Results taken from patent US20100292231A1, “Indazole Compounds for Treating Inflammatory Disorders, Demyelinating Disorders and Cancers” (priority 2007, published 2010).
Where two headings read alike, the source gives them in different places.

Assays:
Test in all cases: SelectScreen kinase specificity survey
Format in all cases: biochemical
ABL1 G250E = target: T1, ABL1 G250E (Homo sapiens, UniProt P00519, G250E); settings: estimated, abridged dose response curve, read-out: Kinase inhibitory activity EC50
T1 construct: purchased Invitrogen (SelectScreen platform)
Method in brief: (§1)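 Each kinase was run with its own substrate and optical reporter at 100 micromolar ATP. Inhibitor was added in 5 graded increments, and EC50 was estimated by fitting the abridged dose-response curve to a 4-parameter Hill equation. The survey covered a 230-kinase panel.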

ABL1 Y253F = target: T2, ABL1 Y253F (Homo sapiens, UniProt P00519, Y253F); settings: estimated, abridged dose response curve, read-out: Kinase inhibitory activity EC50
T2 construct: purchased Invitrogen (SelectScreen platform)
Method in brief: as §1

ADRBK2 (BARK2, GRK3) = target: T3, ADRBK2 (BARK2, GRK3) (Homo sapiens, UniProt P35626)
T3 construct: purchased Invitrogen (SelectScreen platform)
Method in brief: as §1

AKT2 (PKB beta) = target: T4, AKT2 (PKB beta) (Homo sapiens, UniProt P31751); settings: estimated, abridged dose response curve, read-out: Kinase inhibitory activity EC50
T4 construct: purchased Invitrogen (SelectScreen platform)
Method in brief: as §1

AMPK A2/B1/G1 = target: T5, AMPK A2/B1/G1 (Homo sapiens, UniProt P54619+P54646+Q9Y478); settings: estimated, abridged dose response curve, read-out: Kinase inhibitory activity EC50
T5 construct: purchased Invitrogen, Inc. (SelectScreen platform)
Method in brief: as §1

CDC42 BPB (MRCKB) = target: T6, CDC42 BPB (MRCKB) (Homo sapiens, UniProt Q9Y5S2); settings: estimated, abridged dose response curve, read-out: Kinase inhibitory activity EC50
T6 construct: purchased Invitrogen (SelectScreen platform)
T6 sequence (Q9Y5S2 whole entry): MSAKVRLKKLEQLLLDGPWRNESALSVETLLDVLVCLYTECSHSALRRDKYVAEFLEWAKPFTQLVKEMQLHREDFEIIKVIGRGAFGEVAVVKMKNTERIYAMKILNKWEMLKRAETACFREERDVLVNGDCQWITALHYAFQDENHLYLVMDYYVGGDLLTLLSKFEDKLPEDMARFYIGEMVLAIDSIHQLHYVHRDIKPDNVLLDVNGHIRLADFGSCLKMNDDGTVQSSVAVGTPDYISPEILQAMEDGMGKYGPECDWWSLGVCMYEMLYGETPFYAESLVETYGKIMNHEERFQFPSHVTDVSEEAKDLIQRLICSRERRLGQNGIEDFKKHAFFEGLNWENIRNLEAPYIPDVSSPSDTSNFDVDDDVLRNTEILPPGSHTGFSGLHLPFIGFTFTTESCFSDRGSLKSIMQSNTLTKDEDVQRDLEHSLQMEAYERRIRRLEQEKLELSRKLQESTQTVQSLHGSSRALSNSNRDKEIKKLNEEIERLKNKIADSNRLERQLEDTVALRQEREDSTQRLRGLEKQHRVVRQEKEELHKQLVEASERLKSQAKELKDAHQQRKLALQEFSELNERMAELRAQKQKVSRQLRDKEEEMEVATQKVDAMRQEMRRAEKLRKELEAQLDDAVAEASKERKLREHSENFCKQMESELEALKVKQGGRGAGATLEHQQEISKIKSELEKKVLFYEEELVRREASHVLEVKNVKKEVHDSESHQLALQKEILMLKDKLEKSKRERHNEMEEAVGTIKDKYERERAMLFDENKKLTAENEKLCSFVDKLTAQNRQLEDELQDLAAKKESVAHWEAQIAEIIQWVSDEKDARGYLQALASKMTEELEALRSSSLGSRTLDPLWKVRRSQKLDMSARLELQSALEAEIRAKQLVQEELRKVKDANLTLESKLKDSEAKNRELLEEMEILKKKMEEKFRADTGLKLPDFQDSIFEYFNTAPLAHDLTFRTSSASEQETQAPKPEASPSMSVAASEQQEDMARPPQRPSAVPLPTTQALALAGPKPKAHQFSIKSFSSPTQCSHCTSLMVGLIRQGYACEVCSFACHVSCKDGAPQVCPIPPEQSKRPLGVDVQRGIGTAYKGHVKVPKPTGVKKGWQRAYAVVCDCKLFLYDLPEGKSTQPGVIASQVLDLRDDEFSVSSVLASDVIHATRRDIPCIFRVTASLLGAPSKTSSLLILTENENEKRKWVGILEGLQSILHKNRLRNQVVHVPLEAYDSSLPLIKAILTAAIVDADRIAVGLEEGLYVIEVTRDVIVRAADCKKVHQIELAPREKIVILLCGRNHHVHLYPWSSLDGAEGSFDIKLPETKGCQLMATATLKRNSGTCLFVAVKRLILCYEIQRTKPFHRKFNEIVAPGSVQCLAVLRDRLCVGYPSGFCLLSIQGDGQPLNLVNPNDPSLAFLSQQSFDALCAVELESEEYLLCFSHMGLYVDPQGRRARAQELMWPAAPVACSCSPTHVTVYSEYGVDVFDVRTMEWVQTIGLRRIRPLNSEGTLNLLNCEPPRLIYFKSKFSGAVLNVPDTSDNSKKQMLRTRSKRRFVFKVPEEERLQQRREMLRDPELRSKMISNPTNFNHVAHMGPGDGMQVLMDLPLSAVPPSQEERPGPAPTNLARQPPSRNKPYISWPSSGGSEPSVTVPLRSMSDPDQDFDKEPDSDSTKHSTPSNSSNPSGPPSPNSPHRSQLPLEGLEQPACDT
Method in brief: as §1

DYRK1B = target: T7, DYRK1B (Homo sapiens, UniProt Q9Y463); settings: estimated, abridged dose response curve, read-out: Kinase inhibitory activity EC50
T7 construct: purchased Invitrogen (SelectScreen platform)
Method in brief: as §1

EPHB1 = target: T8, EPHB1 (Homo sapiens, UniProt P54762)
T8 construct: purchased Invitrogen (SelectScreen service)
Method in brief: as §1

FGR = target: T9, FGR (Homo sapiens, UniProt P09769); settings: estimated, abridged dose response curve, read-out: Kinase inhibitory activity EC50
T9 construct: purchased Invitrogen (SelectScreen)
T9 sequence (P09769 whole entry): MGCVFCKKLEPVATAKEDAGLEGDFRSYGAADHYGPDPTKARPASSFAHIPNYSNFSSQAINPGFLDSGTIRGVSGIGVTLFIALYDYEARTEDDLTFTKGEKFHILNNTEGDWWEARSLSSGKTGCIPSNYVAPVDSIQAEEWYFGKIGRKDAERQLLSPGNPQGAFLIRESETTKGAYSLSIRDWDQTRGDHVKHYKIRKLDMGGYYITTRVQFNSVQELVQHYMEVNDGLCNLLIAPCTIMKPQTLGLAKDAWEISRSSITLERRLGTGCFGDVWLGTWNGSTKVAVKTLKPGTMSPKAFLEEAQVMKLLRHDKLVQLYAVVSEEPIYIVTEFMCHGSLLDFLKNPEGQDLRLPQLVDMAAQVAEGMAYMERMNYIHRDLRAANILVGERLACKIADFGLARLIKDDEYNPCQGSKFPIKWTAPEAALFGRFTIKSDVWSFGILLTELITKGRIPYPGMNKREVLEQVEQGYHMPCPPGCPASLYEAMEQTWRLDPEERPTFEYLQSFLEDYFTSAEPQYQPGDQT
Method in brief: as §1

JAK2 JH1 JH2 = target: T10, JAK2 JH1 JH2 (Homo sapiens, UniProt O60674); settings: estimated, abridged dose response curve, read-out: Kinase inhibitory activity EC50
T10 construct: JAK2 JH1 JH2; purchased Invitrogen (SelectScreen platform)
Method in brief: as §1

JAK3 = target: T11, JAK3 (Homo sapiens, UniProt P52333); settings: estimated, abridged dose response curve, read-out: Kinase inhibitory activity EC50
T11 construct: purchased Invitrogen (SelectScreen platform)
Method in brief: as §1

LCK = target: T12, LCK (Homo sapiens, UniProt P06239); settings: estimated, abridged dose response curve, read-out: Kinase inhibitory activity EC50
T12 construct: purchased Invitrogen (SelectScreen)
T12 sequence (P06239 whole entry): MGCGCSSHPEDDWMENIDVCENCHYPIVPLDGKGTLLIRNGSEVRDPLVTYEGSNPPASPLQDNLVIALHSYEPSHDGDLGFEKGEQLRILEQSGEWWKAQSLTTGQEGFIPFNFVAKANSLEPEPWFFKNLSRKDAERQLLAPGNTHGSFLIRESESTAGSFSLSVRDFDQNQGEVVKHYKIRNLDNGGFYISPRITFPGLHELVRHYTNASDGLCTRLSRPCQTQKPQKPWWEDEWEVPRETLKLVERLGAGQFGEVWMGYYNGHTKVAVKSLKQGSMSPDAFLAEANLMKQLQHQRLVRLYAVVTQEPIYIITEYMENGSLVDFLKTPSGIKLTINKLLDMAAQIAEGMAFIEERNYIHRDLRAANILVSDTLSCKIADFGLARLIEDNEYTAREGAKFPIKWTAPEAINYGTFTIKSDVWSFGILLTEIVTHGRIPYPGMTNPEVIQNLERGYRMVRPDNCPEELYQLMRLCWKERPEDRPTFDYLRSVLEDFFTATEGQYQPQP
Method in brief: as §1

MAP3K9 (MLK1) = target: T13, MAP3K9 (MLK1) (Homo sapiens, UniProt P80192); settings: estimated, abridged dose response curve, read-out: Kinase inhibitory activity EC50
T13 construct: purchased Invitrogen, Inc. (SelectScreen platform)
Method in brief: as §1

MAPK14 (p38 alpha) = target: T14, MAPK14 (p38 alpha) (Homo sapiens, UniProt Q16539); settings: estimated, abridged dose response curve, read-out: Kinase inhibitory activity EC50
T14 construct: purchased Invitrogen, Inc. (SelectScreen service)

MAPK8 (JNK1) = target: T15, MAPK8 (JNK1) (Homo sapiens, UniProt P45983); settings: estimated, abridged dose response curve, read-out: Kinase inhibitory activity EC50
T15 construct: purchased Invitrogen, Inc. (SelectScreen service)
T15 sequence (P45983 whole entry): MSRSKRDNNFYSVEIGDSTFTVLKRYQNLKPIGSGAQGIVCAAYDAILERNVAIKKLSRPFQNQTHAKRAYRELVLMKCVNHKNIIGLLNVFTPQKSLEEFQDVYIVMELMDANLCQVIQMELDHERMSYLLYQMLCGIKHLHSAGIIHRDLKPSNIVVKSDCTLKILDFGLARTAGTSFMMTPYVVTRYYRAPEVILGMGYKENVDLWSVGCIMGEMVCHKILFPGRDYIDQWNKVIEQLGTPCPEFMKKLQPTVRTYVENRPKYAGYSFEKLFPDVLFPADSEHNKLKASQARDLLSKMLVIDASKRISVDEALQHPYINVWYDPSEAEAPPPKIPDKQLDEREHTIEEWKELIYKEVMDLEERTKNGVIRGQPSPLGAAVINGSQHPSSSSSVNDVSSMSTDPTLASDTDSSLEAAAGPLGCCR
Method in brief: as §1

MYLK2 (skMLCK) = target: T16, MYLK2 (skMLCK) (Homo sapiens, UniProt Q9H1R3); settings: estimated, abridged dose response curve; for EC50: read-out: Kinase inhibitory activity EC50
T16 construct: purchased Invitrogen, Inc. (SelectScreen platform)
Method in brief: as §1

PAK3 = target: T17, PAK3 (Homo sapiens, UniProt O75914); settings: estimated, abridged dose response curve, read-out: Kinase inhibitory activity EC50
T17 construct: purchased Invitrogen (SelectScreen platform)
Method in brief: as §1

PASK = target: T18, PASK (Homo sapiens, UniProt Q96RG2); settings: estimated, abridged dose response curve, read-out: Kinase inhibitory activity EC50
T18 construct: purchased Invitrogen, Inc. (SelectScreen platform)
Method in brief: as §1

PRKCQ (PKC theta) = target: T19, PRKCQ (PKC theta) (Homo sapiens, UniProt Q04759); settings: estimated, abridged dose response curve, read-out: Kinase inhibitory activity EC50
T19 construct: purchased Invitrogen, Inc. (SelectScreen platform)
Method in brief: as §1

RPS6KA2 (RSK3) = target: T20, RPS6KA2 (RSK3) (Homo sapiens, UniProt Q15349); settings: estimated, abridged dose response curve, read-out: Kinase inhibitory activity EC50
T20 construct: purchased Invitrogen, Inc. (SelectScreen platform)
Method in brief: as §1

RPS6KA3 (RSK2) = target: T21, RPS6KA3 (RSK2) (Homo sapiens, UniProt P51812); settings: estimated, abridged dose response curve, read-out: Kinase inhibitory activity EC50
T21 construct: purchased Invitrogen, Inc. (SelectScreen platform)
T21 sequence (P51812 whole entry): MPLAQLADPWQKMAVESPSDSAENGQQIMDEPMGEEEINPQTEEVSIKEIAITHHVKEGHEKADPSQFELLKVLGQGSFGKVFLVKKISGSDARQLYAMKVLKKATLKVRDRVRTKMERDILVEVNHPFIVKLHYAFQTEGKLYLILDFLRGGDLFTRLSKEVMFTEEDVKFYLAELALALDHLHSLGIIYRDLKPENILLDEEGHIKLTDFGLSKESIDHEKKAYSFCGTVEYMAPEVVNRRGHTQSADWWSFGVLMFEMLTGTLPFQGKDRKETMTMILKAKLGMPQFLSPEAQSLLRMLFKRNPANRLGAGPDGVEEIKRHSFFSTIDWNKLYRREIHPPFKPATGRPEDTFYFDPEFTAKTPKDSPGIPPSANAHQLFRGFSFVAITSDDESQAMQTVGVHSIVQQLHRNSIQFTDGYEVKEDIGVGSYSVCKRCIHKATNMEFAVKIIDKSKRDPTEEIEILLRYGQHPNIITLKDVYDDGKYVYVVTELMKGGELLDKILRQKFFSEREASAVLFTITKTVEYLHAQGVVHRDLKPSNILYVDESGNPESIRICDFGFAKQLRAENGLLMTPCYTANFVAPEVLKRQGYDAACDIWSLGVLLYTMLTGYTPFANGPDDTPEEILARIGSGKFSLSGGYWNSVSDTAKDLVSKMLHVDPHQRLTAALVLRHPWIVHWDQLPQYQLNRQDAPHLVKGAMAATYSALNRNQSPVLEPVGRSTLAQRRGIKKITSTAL
Method in brief: as §1

RPS6KB1 (p70S6K) = RPS6KB1 (p70S6K) (Homo sapiens, UniProt P23443); settings: estimated, abridged dose response curve, read-out: Kinase inhibitory activity EC50
Method in brief: as §1

SRC N1 = target: T22, SRC N1 (Homo sapiens, UniProt P12931); settings: estimated, abridged dose response curve, read-out: Kinase inhibitory activity EC50
T22 construct: purchased Invitrogen (SelectScreen)
T22 sequence (P12931 1-542 isoform P12931-2): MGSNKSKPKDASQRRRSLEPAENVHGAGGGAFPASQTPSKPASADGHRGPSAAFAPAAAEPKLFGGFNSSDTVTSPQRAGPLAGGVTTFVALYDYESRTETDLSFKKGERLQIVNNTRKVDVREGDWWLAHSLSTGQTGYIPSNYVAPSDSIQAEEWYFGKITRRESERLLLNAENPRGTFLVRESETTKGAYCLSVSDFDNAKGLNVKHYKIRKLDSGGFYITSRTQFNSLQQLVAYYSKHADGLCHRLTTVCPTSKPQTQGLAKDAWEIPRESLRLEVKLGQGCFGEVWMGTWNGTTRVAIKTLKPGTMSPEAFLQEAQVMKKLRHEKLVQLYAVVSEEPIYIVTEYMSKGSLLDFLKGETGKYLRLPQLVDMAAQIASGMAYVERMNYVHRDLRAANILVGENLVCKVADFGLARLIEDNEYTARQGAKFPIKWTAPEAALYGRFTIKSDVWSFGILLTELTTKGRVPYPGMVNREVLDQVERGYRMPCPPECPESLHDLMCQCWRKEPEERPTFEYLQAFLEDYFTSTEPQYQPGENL
Method in brief: as §1

SRPK2 = target: T23, SRPK2 (Homo sapiens, UniProt P78362); settings: estimated, abridged dose response curve, read-out: Kinase inhibitory activity EC50
T23 construct: purchased Invitrogen, Inc. (SelectScreen service)
Method in brief: as §1

STK22D (TSSK1) = target: T24, STK22D (TSSK1) (Homo sapiens, UniProt Q9BXA7); settings: estimated, abridged dose response curve, read-out: Kinase inhibitory activity EC50
T24 construct: purchased Invitrogen, Inc. (SelectScreen platform)
Method in brief: as §1

STK25 (YSK1) = target: T25, STK25 (YSK1) (Homo sapiens, UniProt O00506); settings: estimated, abridged dose response curve, read-out: Kinase inhibitory activity EC50
T25 construct: purchased Invitrogen (SelectScreen platform)
T25 sequence (O00506 whole entry): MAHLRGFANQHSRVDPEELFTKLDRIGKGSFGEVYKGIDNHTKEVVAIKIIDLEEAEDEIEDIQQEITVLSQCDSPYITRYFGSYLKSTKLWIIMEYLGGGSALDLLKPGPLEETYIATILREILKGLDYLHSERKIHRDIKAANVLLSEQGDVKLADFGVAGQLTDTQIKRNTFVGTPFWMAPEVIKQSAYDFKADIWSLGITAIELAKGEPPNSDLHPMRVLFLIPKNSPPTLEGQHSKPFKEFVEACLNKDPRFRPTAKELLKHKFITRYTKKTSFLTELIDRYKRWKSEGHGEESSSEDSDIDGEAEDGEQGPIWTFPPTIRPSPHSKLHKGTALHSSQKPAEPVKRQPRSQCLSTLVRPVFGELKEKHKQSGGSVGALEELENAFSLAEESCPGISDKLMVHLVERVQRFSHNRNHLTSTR
Method in brief: as §1

SMILES	EC50 (ABL1 G250E) [nM]	EC50 (ABL1 Y253F) [nM]	EC50 (AKT2 (PKB beta)) [nM]	EC50 (AMPK A2/B1/G1) [nM]	EC50 (CDC42 BPB (MRCKB)) [nM]	EC50 (DYRK1B) [nM]	EC50 (FGR) [nM]	EC50 (JAK2 JH1 JH2) [nM]	EC50 (JAK3) [nM]	EC50 (LCK) [nM]	EC50 (MAP3K9 (MLK1)) [nM]	EC50 (MAPK14 (p38 alpha)) [nM]	EC50 (MAPK8 (JNK1)) [nM]	EC50 (MYLK2 (skMLCK)) [nM]	EC50 (PAK3) [nM]	EC50 (PASK) [nM]	EC50 (PRKCQ (PKC theta)) [nM]	EC50 (RPS6KA2 (RSK3)) [nM]	EC50 (RPS6KA3 (RSK2)) [nM]	EC50 (RPS6KB1 (p70S6K)) [nM]	other results
CN(C)CCCNc1ccc2ncn3c4ccc5[nH]ncc5c4c(=O)c1c23 [Compound (IV)]	4050	2520	> 5000	1570	3630	820	367	> 5000	> 5000	345	> 5000	3790	> 5000	15	> 5000	1230	> 5000	840	1490	2370	EC50 (ADRBK2 (BARK2, GRK3); ADRBK2 (BARK2, GRK3), estimated, abridged dose response curve, read-out: Kinase inhibitory activity EC50): > 5000 nM; EC50 (EPHB1; EPHB1, estimated, abridged dose response curve, read-out: Kinase inhibitory activity EC50): > 5000 nM; Kinase inhibitory activity EC50 (MYLK2 (skMLCK)): low nM; EC50 (SRC N1): 511 nM; EC50 (SRPK2): > 5000 nM; EC50 (STK22D (TSSK1)): 2020 nM; EC50 (STK25 (YSK1)): > 5000 nM
CCN(CC)CCNc1ccc2ncn3c4ccc(O)cc4c(=O)c1c23 [Symadex, 5-(2-(diethylamino)ethylamino)-8-hydroxy-6H-imidazo[4,5,1-de]acridin-6-one, reference compound]	> 5000	4480	> 5000	1790	> 5000	991	1270	> 5000	> 5000	824	> 5000	2970	> 5000	41	> 5000	4320	> 5000	460	692	> 5000	EC50 (ADRBK2 (BARK2, GRK3)): > 5000 nM; EC50 (EPHB1): > 5000 nM; EC50 (SRC N1): 3150 nM; EC50 (SRPK2): > 5000 nM; EC50 (STK22D (TSSK1)): 1950 nM; EC50 (STK25 (YSK1)): > 5000 nM
